# Reference: patent publication US9359342B2, “Protein disulfide isomerase inhibiting anticancer agents” (THE CLEVELAND CLINIC FOUNDATION, priority 2013, dated 2016)
# Experiments:
# MM1.S = MM1.S myeloma cell viability; type: cell-based; conditions: Homo sapiens; for viability at 6.75 µM: MM1.S, compound at 6.75 μM, read-out: MM1.S Viable cells at 6.75 μM (%); for IC50: MM1.S myeloma cells
# From the text: Cell lines: Multiple myeloma cell lines MM1.S, MM1.R, NCI-H929 were obtained from ATCC. MM cell lines KMS-12-PE and KMS-12-BM were from the JCRB, JJN-3 from DSMZ, and 5TGM1-luc cells were from Dr. Yoneda at the University of Texas Health Science at San Antonio. HRMM.09 cells were generated in the inventor's lab from a patient who developed refractory myeloma after treatment with steroids, IMiD, proteasome inhibitors, DNA alkylators, and anthracyclines. MM1.S-luc and HRMM.09-luc were generated in the inventor's laboratory by transduction with Cignal™ firefly luciferase control lentivirus obtained from Qiagen™. Lymphoma cells were generated by Mitchell Smith. All MM and lymphoma cells were grown in RPMI 1640 (NaCl 103.45 mM, NaCO3 23.81 mM, Na2HPO4 5.63 mM, KCl 5.33 mM, Ca(NO3)2 4H2O 0.424 mM, MgSO4 0.407 mM, pH around 7.2), supplemented with 10% fetal bovine serum, penicillin G (50 units ml^−1), and streptomycin ([…]). HS-5 cells were grown in appropriate cell culture media. Normal bone marrow cells were obtained from discarded bags of bone marrow grafts from healthy donors and either kept in RPMI with 25% (v/v) HS-5 supernatant for up to 14 days for isolated cytotoxicity assays or frozen and thawed for the sandwich assay. All cells were cultured at 37° C., 5% CO2 in humidified air.
# recombinant PDI = recombinant PDI (Homo sapiens, UniProt P07237); test: PDI activity assay (di-eosin-di-gluthathione, eGSSG); type: biochemical; conditions: for PDI Activity at 10 μM (%): compound at 10 μM; for IC50: recombinant PDI, di-eosin-di-gluthathione assay
# Procedure: PDI activity assay: The di-eosin-di-gluthathione assay was performed essentially as described (Raturi, A. and Mutus, B Free Radical Biology & Medicine 43; 2007) with the minor modification that we used gluthathione instead of DTT as reducing agent. Briefly, recombinant PDI was incubated with CC642 or analogs in potassium-based assay buffer at 37° C. before reactions were started by addition of gluthathione and di-eosin-di-gluthathione. Release of eosin was measured every 60 seconds for 30 min using excitation/emission filters of 525 nm/545 nm, respectively.
# (§1) Next, MM1.S cells were treated with B-CCF642 and purified lysates of treated and untreated cells for B-CCF642 binding proteins using streptavidin beads followed by SDS-PAGE and mass spectroscopy for protein sequencing of a band that contained biotin signal. Among 10 proteins that were only recovered from treated cells PDI was the most abundant but HSP70 family members were also recovered. To test whether HSP70 family members were inhibited by CCF642, chaperone assays were performed that tested rearrangement of partially denatured luciferase. […] However, PDI function, as assessed by the eGSSG assay which measures PDI's reducing capacity, was inhibited by CCF642 (table 1). […] To determine whether PDI activity is inhibited in vivo, the inventors performed IRE1-α immunoblots after CCF642 treatment of MM1.S cells. IRE1-α acts as a sensor for misfolded proteins in the ER and undergoes oligomerization after it binds to misfolded proteins which changes its conformation into an active state. Lavoie et al., Trends in biochemical sciences, 39(10):475-486 (2014). Within 15 min CCF642 caused IRE1-α oligomerization (FIG. 6) which was associated with increase in protein ubiquitination (FIGS. 2b and 4), a well-documented consequence of reduction in PDI activity. Lee et al., EMBO molecular medicine. 6(6):732-743 (2014).
# lymphoma cell lines = test: Cytotoxicity in lymphoma cell line panel (trypan blue exclusion, Vicell); type: cell-based; conditions: 6 of 7 (all but one) lymphoma lines, 72 h
# Procedure: (§2) FIGS. 2(A-B) provide a graph and immunoblot showing the effect of CCF642 on cancer and protein ubiquitination, with FIG. 2(A) showing the activity of CCF642 against a panel of MM and lymphoma cells. Seventy two hours after CCF642 administration, the IC50 by trypan blue exclusion (Vicell™) is <1 μM for all MM and all but one lymphoma line. Normal bone marrow (NL BM) tolerated CCF642; myeloid cells were less sensitive, especially GDM1, with E3 ligase domain mutation of c-CBL and FIG. 2(B) showing that an increase in protein ubiquitination is accompanied by loss of myeloma survival factors in MM cells Immunoblots of MM1.S cells show rise followed by decrease of protein ubiquitination with loss of MM survival factors.
# (§3) Cell lines: Multiple myeloma cell lines MM1.S, MM1.R, NCI-H929 were obtained from ATCC. MM cell lines KMS-12-PE and KMS-12-BM were from the JCRB, JJN-3 from DSMZ, and 5TGM1-luc cells were from Dr. Yoneda at the University of Texas Health Science at San Antonio. HRMM.09 cells were generated in the inventor's lab from a patient who developed refractory myeloma after treatment with steroids, IMiD, proteasome inhibitors, DNA alkylators, and anthracyclines. MM1.S-luc and HRMM.09-luc were generated in the inventor's laboratory by transduction with Cignal™ firefly luciferase control lentivirus obtained from Qiagen™. Lymphoma cells were generated by Mitchell Smith. […]
# [1] = system: normal bone marrow (NL BM) cells; test: Cytotoxicity in normal bone marrow; type: cell-based; conditions: three independent normal bone marrow samples; doses up to 6.75 μM
# Procedure: as §2, §3
# protein ubiquitination = test: Protein ubiquitination time course immunoblot in MM1.S cells; type: cell-based
# From the text: Protein ubiquitination and depletion of c-MYC, IRF4, and NF-κB. Initial tests were aimed at excluding proteasome inhibitors from further study and used WB for accumulation of ubiquitinated proteins after one day of therapy. […] Another proteasomally regulated protein, p27, disappeared as well.
# Tolerability in mice = type: in vivo, C57BL/KaLwRij mice
# MM cell lines = test: Cytotoxicity in MM cell line panel (trypan blue exclusion, Vicell); type: cell-based; conditions: 72 h, all 8 MM cell lines tested
# Procedure: as §2, §3
# IRE1-α = IRE1-α oligomerization immunoblot in MM1.S cells; type: cell-based
# Procedure: as §1
# Chain of recombinant PDI (P07237 18-508, species assumed): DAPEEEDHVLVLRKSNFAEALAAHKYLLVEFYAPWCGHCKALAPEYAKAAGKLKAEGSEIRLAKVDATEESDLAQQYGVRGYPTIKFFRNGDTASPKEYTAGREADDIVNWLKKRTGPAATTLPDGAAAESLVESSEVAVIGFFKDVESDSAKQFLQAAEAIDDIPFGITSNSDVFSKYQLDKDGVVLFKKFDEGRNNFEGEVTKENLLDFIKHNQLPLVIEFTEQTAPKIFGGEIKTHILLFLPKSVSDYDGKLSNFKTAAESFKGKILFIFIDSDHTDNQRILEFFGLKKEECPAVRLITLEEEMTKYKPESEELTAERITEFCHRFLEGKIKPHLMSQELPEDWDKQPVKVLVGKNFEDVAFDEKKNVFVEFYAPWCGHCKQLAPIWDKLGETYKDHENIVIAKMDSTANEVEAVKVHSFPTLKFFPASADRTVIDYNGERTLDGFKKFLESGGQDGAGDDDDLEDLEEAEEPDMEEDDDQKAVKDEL
IC50 (MM1.S) [nM],PDI Activity at 10 μM (%) (recombinant PDI),IC50 (recombinant PDI) [nM],Compound,viability at 6.75 µM (MM1.S) [%],further results
> 6750,72.37,,COc1ccc(N2C(=O)C(=Cc3ccc(C(F)(F)F)s3)SC2=S)cc1 [642-20],92.9,
> 6750,71.54,,COc1ccc(N2C(=O)C(=Cc3ccc(C(=O)O)s3)SC2=S)cc1 [642-21],102,
610,5.92,1900,N#Cc1ccc(N2C(=O)C(=Cc3ccc([N+](=O)[O-])s3)SC2=S)cc1 [642-23],17.5,
> 6750,42.12,8660,COc1ccc(N2C(=O)/C(=C/c3cccc([N+](=O)[O-])c3)SC2=S)cc1 [642-24],93.5,
> 6750,40.37,3070,C=CCc1cccc(/C=C2\SC(=S)N(c3ccc(OC)cc3)C2=O)c1O [642-25],92.8,
,,,"CC(C)C[C@H](NC(=O)[C@H](Cc1ccccc1)NC(=O)c1cnccn1)B(O)O [bortezomib, reference compound]",,"maximal tolerated dose (Tolerability in mice; SC twice a week, C57BL/KaLwRij mice): 0.5 mg/kg"

Compound,IC50 (MM1.S) [nM],PDI Activity at 10 μM (%) (recombinant PDI),IC50 (recombinant PDI) [nM],viability at 6.75 µM (MM1.S) [%],further results
COc1ccc(N2C(=O)/C(=C/c3ccc([N+](=O)[O-])s3)SC2=S)cc1 [642-Parent],250,21.51,2440,8.06,"IC50 (lymphoma cell lines): < 1000 nM; IC50 [1]: > 6750 nM; time to increase in protein ubiquitination (protein ubiquitination): ≤ 30 min; tolerability in 5TGM1-luc engrafted mice (Tolerability in mice; C57BL/KaLwRij mice systemically engrafted with 5TGM1-luc): well tolerated; tolerability IV (Tolerability in mice; albumin-based formulation (10-20% BSA, saline, 10% DMSO) given IV): tolerated by mice when given IV; IC50 (MM cell lines): < 1000 nM; IC50 (MM cell lines; listed as CCF642): ~500 nM; time to IRE1-α oligomerization (IRE1-α): ≤ 15 min"
